According to US4774248A, “Methods of treating depression and depressive states using 5-phenyl-1,4,5,6-tetrahydropyrimidine derivatives” (priority 1985, dated 1988):
“Also recorded” adds a separate entry of the source.

Assays:
[1] = system: trembling and head twitches induced by 5-hydroxytryptophan (5-HTP); test: Interaction with 5-hydroxytryptophan in association with an MAOI (nialamide); format: in vivo, male mice; conditions: for trembling: reference β-adrenergic stimulants; for all the effects of 5-HTP: reference substances, in the presence of an MAOI
Experimental: The purpose of the procedure used is to investigate the activity of each product according to the invention as regards the trembling induced by 5-hydroxytryptophan (5-HTP) in association with an MAOI (in this case nialamide).
Each test product, in solution in distilled water, is administered intraperitoneally in a volume of 20 ml/kg to male mice.
Groups of 10 mice receive nialamide (20 mg/kg, administered gastrically) at time T-18 h, each test product at time T-0.5 h and then (±)-5-HTP (20 mg/kg, administered intraperitoneally) at time T. Immediately after the injection of the (±)-5-HTP, the mice are individually placed in transparent plastic boxes. The generalized trembling, the partial trembling and the head twitches are noted on a yes/no basis for 2 h.

[2] = system: rats; test: Overall behavior and reactivities in rats; format: in vivo; conditions: i.p.
Experimental: (§1) The results of toxicological and neuropsychopharmacological tests which were carried out with the products according to the invention have been summarized below. In these tests, solutions of the said products in distilled water were administered intraperitoneally in a volume of 20 ml/kg to male mice and in a volume of 5 ml/kg to male rats.
(§2) Groups of 3 animals are observed before and then 0.25 h, 0.50 h, 1 h, 2 h, 3 h and 24 h after the administration of CRL 41 378. The following observations are made:
(§3) Groups of 3 animals are observed before and then 0.25 h, 0.50 h, 1 h, 2 h, 3 h and 24 h after the administration of CRL 41 329.

[3] = system: mice; test: Behavioral despair (forced immersion); format: in vivo; conditions: mice which have been forcibly immersed, i.p.
Experimental: as §1
Half an hour after they have received CRL 41 378, groups of 6 mice are placed in a beaker filled with water to a height of 6 cm. The total period of immobility between the 2nd and 6th minutes following immersion is noted.

[4] = system: depressions and depressive states; test: Clinical trials in depression and depressive states; format: in vivo, human
Experimental: The clinical trials which have been undertaken have made it possible to determine that the daily dose to be administered orally to adults, in the treatment of depressions and depressive states, is generally between 3 and 120 mg for the products of the formulae Ia and Ib according to the invention.

[5] = system: male mice; test: Acute toxicity, intraperitoneal (LD0, LD30, LD60, LD100); format: in vivo
Experimental: as §1

[6] = system: hypothermia and ptosis induced by reserpine; test: Interaction with reserpine; format: in vivo; conditions: mice, i.p.; reserpine 2.5 mg/kg
Experimental: as §1
Four hours after the intraperitoneal injection of 2.5 mg/kg of reserpine, groups of 12 mice receive CRL 41 378.

[7] = system: mice; test: Overall behavior and reactivities in mice; format: in vivo; conditions: i.p.
Experimental: as §1, §2, §3

[8] = system: central nervous system (CNS); test: Neuropsychopharmacological profile (conclusions of the tests); format: in vivo, mice and rats; conditions: for overall neuropsychopharmacological profile: summary
Experimental: as §1

[9] = system: hypothermia, trembling and peripheral cholinergic symptoms induced by oxotremorine; test: Interaction with oxotremorine; format: in vivo; conditions: mice, i.p.; oxotremorine 0.5 mg/kg
Experimental: as §1
CRL 41 378 is administered to groups of 6 mice 0.5 h before the intraperitoneal injection of 0.5 mg/kg of oxotremorine.

[10] = system: hypothermia induced by apomorphine; test: Interaction with apomorphine by gastric administration; format: in vivo; conditions: Mus musculus, male mice, apomorphine 16 mg/kg s.c., read-out: dose as from which the hypothermia induced by apomorphine is opposed
Experimental: Each test product is administered gastrically to male mice, in a volume of 20 ml/kg, 0.50 h before the subcutaneous injection of 16 mg/kg of apomorphine.

[11] = system: mice; test: Intergroup aggressiveness; format: in vivo; conditions: mice, i.p.
Experimental: as §1
After they have stayed for 3 weeks in the two halves of a cage divided by an opaque partition, groups of 3 mice receive CRL 41 378. Half an hour later, the two groups from the same cage are brought together by removal of the partition and the number of fights which occur in 10 minutes is noted.

[12] = system: hypothermia, righting behavior and stereotypies induced by apomorphine; test: Interaction with apomorphine in mice; format: in vivo; conditions: i.p.
Experimental: as §1
CRL 41 378 is administered to groups of 6 mice 30 minutes before the subcutaneous injection of 1 or 16 mg/kg of apomorphine.

[13] = system: mice; test: Motility reduced by habituation to the enclosure; format: in vivo; conditions: i.p.
Experimental: as §1
After they have stayed in the actimeters for 18 hours, the mice (6 per dose, 12 control animals) receive CRL 41 378. They are immediately returned to their respective enclosures and, half an hour later, their motility is recorded for 30 minutes.

[14] = system: pregnant rabbits; test: Teratogenic effects on pregnant rabbits; format: in vivo
[15] = system: mice; test: Electric shock; format: in vivo; conditions: i.p.
Experimental: as §1
The test is performed on groups of 10 mice 30 minutes after the administration of CRL 41 378.

[16] = system: mice; test: Motility reduced by hypoxic aggression (acute hypobaric anoxia); format: in vivo; conditions: i.p.
Experimental: In these tests, solutions of the said products in distilled water were administered intraperitoneally in a volume of 20 ml/kg to male mice and in a volume of 5 ml/kg to male rats.

[17] = system: mice; test: Spontaneous motility (actimeter); format: in vivo; conditions: i.p.
Experimental: as §1
0.5 h after they have received CRL 41 378, the mice (6 per dose, 12 control animals) are placed in an actimeter, where their motility is recorded for 30 minutes.

[18] = i.p., nialamide + (±)-5-HTP, male mice

Q: Which head twitches [1, 18] does the source give for `CC(C)NCC(O)c1cc(O)cc(O)c1` (stereo not drawn) [ociprenaline, reference compound] here?
A: no modification of the trembling or head twitches

Q: What about the trembling ([1]; 5-HTP + MAOI) of the same compound?
A: no modification of the trembling or head twitches

Q: Which “overall behavior and reactivities” value ([2]; 4 mg/kg and 16 mg/kg) does the source give for `CC1=NCC(c2ccccc2)CN1.Cl` (stereo not drawn) [CRL 41 352, 2-methyl-5-phenyl-1,4,5,6-tetrahydropyrimidine hydrochloride] here?
A: mydriasis

Q: And the “overall behavior and reactivities” value ([2]; 16 mg/kg)?
A: a decrease in the breathing rate

Q: And the period of immobility [3]?
A: no decrease in the period of immobility due to "despair"

Q: What about the “effectiveness in ambulant patients with depressive symptomatology” value ([4]; asthenia, slowing down or both psycho-intellectual and motor inhibition) of the same compound?
A: particularly effective

Q: And the “results in human therapy (depression)” value ([4]; daily oral administration to adults)?
A: excellent results

Q: And the “toxic signs in the animals treated” value ([5]; 64 mg/kg i.p.)?
A: all the animals treated exhibit sedation and a decrease in the breathing rate

Q: And the “LD0 (maximum non-lethal dose)” value ([5]; intraperitoneal)?
A: greater than 64 mg/kg

Q: What about the LD30 ([5]; intraperitoneal) of the same compound?
A: ~128 mg/kg

Q: And the “action on hypothermia induced by reserpine” value [6]?
A: more moderate antagonism of the hypothermia induced by reserpine

Q: And the “overall behavior and reactivities” value ([7]; 0.5 mg/kg, 2 mg/kg, 8 mg/kg and 32 mg/kg)?
A: no distinct modification of the behavior and reactivities

Q: What about the antidepressant effects ([8]; i.p.) of the same compound?
A: antidepressant effects which are very distinct

Q: And the sedative effects ([8]; i.p.)?
A: sedative effects appearing at very high doses

Q: And the stimulant effects ([8]; i.p.)?
A: a stimulant effect which is very moderate, appearing at high doses

Q: What about the overall neuropsychopharmacological profile [8] of the same compound?
A: principally an antidepressant having a very slight stimulant component and a very weak sedative component

Q: What about the “action on hypothermia induced by oxotremorine” value [9] of the same compound?
A: significant antagonism (as from the lowest doses used) of the hypothermia induced by apomorphine and oxotremorine

Q: What about the minimal effective dose [10] of the same compound?
A: ≥ 0.5 mg/kg

Q: What about the “analogy with β-adrenergic stimulants in the 5-HTP procedure” value ([1]; 5-HTP + MAOI) of the same compound?
A: effects analogous to those of isoprenaline

Q: And the “intensity of potentiation of 5-HTP effects” value ([1]; higher doses, 5-HTP + MAOI, male mice)?
A: the potentiation being very intense at the doses of 8 to 32 mg/kg

Q: What about the head twitches [1, 18] of the same compound?
A: distinctly potentiate the partial trembling and the head twitches

Q: What about the partial trembling [1, 18] of the same compound?
A: distinctly potentiate the partial trembling and the head twitches

Q: What about the “intergroup aggressiveness (number of fights)” value [11] of the same compound?
A: a decrease in the number of fights in the intergroup aggressiveness test

Q: And the “action on hypothermia induced by apomorphine” value [12]?
A: significant antagonism (as from the lowest doses used) of the hypothermia induced by apomorphine and oxotremorine

Q: What about the “resumption in the motor activity of mice accustomed to their enclosure” value [13] of the same compound?
A: a resumption in the motor activity of mice accustomed to their enclosure

Q: And the teratogenic effects [14]?
A: devoid of harmful teratogenic effects on pregnant rabbits

Q: With `CCNC(C)Cc1cccc(C(F)(F)F)c1` (stereo not drawn) [fenfluramine, reference compound] as the compound, how does the “all the effects of 5-HTP” value [1] read?
A: potentiate all the effects of 5-HTP in the presence of an MAOI

Q: For `CC(C)(C)NCC(O)c1ccc(O)c(CO)c1` (stereo not drawn) [salbutamol, reference compound], which head twitches [1, 18] is on record?
A: no modification of the head twitches

Q: And the trembling ([1]; 5-HTP + MAOI)?
A: moderate potentiation of the trembling

Q: With `CC(N)Cc1ccccc1` (stereo not drawn) [amphetamine, reference compound] as the compound, how does the “all the effects of 5-HTP” value [1] read?
A: potentiate all the effects of 5-HTP in the presence of an MAOI

Q: What does the source list for `CC(C)NCC(O)c1ccc(O)c(O)c1` (stereo not drawn) [isoprenaline, reference compound]?
A: head twitches [1, 18]: distinct potentiation of the trembling and head twitches; trembling ([1]; 5-HTP + MAOI): distinct potentiation of the trembling and head twitches

Q: With `CNCCCN1c2ccccc2CCc2ccccc21` [desipramine, reference compound] as the compound, how does the “all the effects of 5-HTP” value [1] read?
A: potentiate all the effects of 5-HTP in the presence of an MAOI

Q: Which “overall behavior and reactivities” value ([2]; 1 and 4 mg/kg) does the source give for `CN1C=NCC(c2ccccc2)C1.Cl` (stereo not drawn) [CRL 41 337, 1-methyl-5-phenyl-1,4,5,6-tetrahydropyrimidine hydrochloride] here?
A: no distinct modification of the behavior and reactivities compared with the control animals

Q: And the “overall behavior and reactivities” value ([2]; 16 and 64 mg/kg)?
A: mydriasis

Q: What about the “lethal effects of electric shock” value [15] of the same compound?
A: at a high dose, CRL 41 337 causes aggravation of the lethal effects of electric shock

Q: And the period of immobility ([3]; hydrochloride)?
A: no modification of the period of immobility due to despair; also recorded: no effect on the immobility due to despair

Q: What about the “LD0 (maximum non-lethal dose)” value ([5]; intraperitoneal) of the same compound?
A: greater than 256 mg/kg

Q: What about the LD60 ([5]; intraperitoneal) of the same compound?
A: about 500 mg/kg

Q: What about the “LD100 (minimum dose lethal to all the animals)” value ([5]; intraperitoneal) of the same compound?
A: less than or equal to 1000 mg/kg

Q: And the “action on hypothermia induced by reserpine” value [6]?
A: antagonism of the hypothermia induced by apomorphine, reserpine and oxotremorine

Q: What about the “action on ptosis induced by reserpine” value [6] of the same compound?
A: antagonism of the ptosis induced by reserpine

Q: And the “overall behavior and reactivities” value ([7]; 128 mg/kg)?
A: moderate hypothermia (-1.6 °C one hour after administration) for 3 h

Q: What about the moderate hypothermia ([7]; 128 mg/kg, one hour after administration) of the same compound?
A: -1.6 °C

Q: And the “overall behavior and reactivities” value ([7]; 2 to 32 mg/kg)?
A: no distinct modification of the behavior and reactivities compared with the control animals

Q: And the antidepressant effects ([8]; i.p.)?
A: antidepressant effects

Q: What about the peripheral anticholinergic activity ([8]; i.p.) of the same compound?
A: no anticholinergic action

Q: And the stimulant effects ([8]; i.p.)?
A: no stimulation of the spontaneous motor activity

Q: And the “peripheral α-adrenergic stimulant effects” value ([8]; i.p., hydrochloride)?
A: peripheral α-adrenergic stimulant effects; also recorded: mydriasis in rats

Q: And the sedative effects ([8]; i.p., hydrochloride)?
A: sedative effects; also recorded: hypothermia

Q: What about the overall neuropsychopharmacological profile ([8]; hydrochloride) of the same compound?
A: acts principally as an antidepressant; also recorded: resemble those of β-adrenergic stimulants

Q: What about the “action on hypothermia induced by oxotremorine” value [9] of the same compound?
A: antagonism of the hypothermia induced by apomorphine, reserpine and oxotremorine

Q: What about the “motor recovery after acute hypobaric hypoxia” value [16] of the same compound?
A: at high doses, CRL 41 337 paradoxically causes an improvement in the motor recovery of mice after acute hypobaric hypoxia

Q: What about the “intergroup aggressiveness (number of fights)” value [11] of the same compound?
A: a decrease in the intergroup aggressiveness

Q: What about the “action on hypothermia induced by apomorphine” value [12] of the same compound?
A: antagonism of the hypothermia induced by apomorphine, reserpine and oxotremorine

Q: And the “resumption in the motor activity of mice accustomed to their enclosure” value [13]?
A: a resumption in the motor activity of mice accustomed to their enclosure

Q: What about the spontaneous motor activity [17] of the same compound?
A: a decrease in the motor activity

Q: With `CC(NCCc1ccc(O)cc1)C(O)c1ccc(O)cc1` (stereo not drawn) [ritodrine, reference compound] as the compound, how does the head twitches [1, 18] read?
A: no modification of the head twitches

Q: And the trembling ([1]; 5-HTP + MAOI)?
A: moderate potentiation of the trembling

Q: What does the source list for `CC(C)(C)NCC(O)c1cc(O)cc(O)c1` (stereo not drawn) [terbutaline, reference compound]?
A: head twitches [1, 18]: no modification of the trembling or head twitches; trembling ([1]; 5-HTP + MAOI): no modification of the trembling or head twitches

Q: For `CC(Cc1ccc(O)cc1)NCC(O)c1cc(O)cc(O)c1` (stereo not drawn) [fenoterol, reference compound], which head twitches [1, 18] is on record?
A: moderate potentiation of the head twitches

Q: What about the trembling ([1]; 5-HTP + MAOI) of the same compound?
A: distinct potentiation of the trembling
